{"source": "the supplement of paper PMC10307832", "experiment_in_all_cases": "relative viability (nuclei count vs DMSO), 5 days (fraction); higher = more cells survive", "key": {"[1]": {"compound": "COc1cc2nc(N3CCCN(C)CC3)nc(NC3CCN(Cc4ccccc4)CC3)c2cc1OC + COc1cccc2cc(-c3nc([C@H]4CC[C@H](C(=O)O)CC4)n4ncnc(N)c34)[nH]c12 [OSI-027] (partner 0.5 µM)", "method_in_brief": "(§1)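 One day after seeding in 1536-well plates, lung cancer cell lines were dosed by pin tool. Dosing was either single-drug or a fixed anchor-drug dose plus five library-drug doses (not always all listed) in √10 steps. After 5 days, nuclei were stained in one fix-and-stain step and counted on 4× images, and relative viability is the nuclei count of treated wells over that of vehicle wells, given as the median of duplicate plates.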"}, "[2]": {"compound": "COc1cc2nc(N3CCCN(C)CC3)nc(NC3CCN(Cc4ccccc4)CC3)c2cc1OC + CS(=O)(=O)CCNCc1ccc(-c2ccc3ncnc(Nc4ccc(OCc5cccc(F)c5)c(Cl)c4)c3c2)o1 [Lapatinib] (partner 2 µM)", "method_in_brief": "as §1"}, "[3]": {"compound": "COc1cc2nc(N3CCCN(C)CC3)nc(NC3CCN(Cc4ccccc4)CC3)c2cc1OC + Nc1nc2[nH]cc(CCc3ccc(C(=O)N[C@@H](CCC(=O)O)C(=O)O)cc3)c2c(=O)[nH]1 [Pemetrexed] (partner 0.2 µM)", "method_in_brief": "as §1"}, "[4]": {"compound": "COc1cc2nc(N3CCCN(C)CC3)nc(NC3CCN(Cc4ccccc4)CC3)c2cc1OC + Nc1ncn([C@H]2C[C@H](O)[C@@H](CO)O2)c(=O)n1 [Decitabine] (partner 2 µM)", "method_in_brief": "as §1"}, "[5]": {"compound": "COc1cc2nc(N3CCCN(C)CC3)nc(NC3CCN(Cc4ccccc4)CC3)c2cc1OC + O=C(CCCCCCC(=O)Nc1ccccc1)NO [Vorinostat] (partner 1 µM)", "method_in_brief": "as §1"}}}
{"cell line": "UMC-11", "values": [{"measurement": "relative viability", "setting": "[1]; first compound 0.2 µM", "value": 0.534}, {"measurement": "relative viability", "setting": "[1]; first compound 0.6325 µM", "value": 0.461}, {"measurement": "relative viability", "setting": "[1]; first compound 2 µM", "value": 0.398}, {"measurement": "relative viability", "setting": "[1]; first compound 6.325 µM", "value": 0.284}, {"measurement": "relative viability", "setting": "[2]; first compound 0.2 µM", "value": 0.93}, {"measurement": "relative viability", "setting": "[2]; first compound 0.6325 µM", "value": 1.12}, {"measurement": "relative viability", "setting": "[2]; first compound 2 µM", "value": 1.03}, {"measurement": "relative viability", "setting": "[2]; first compound 6.325 µM", "value": 0.656}, {"measurement": "relative viability", "setting": "[3]; first compound 0.2 µM", "value": 0.86}, {"measurement": "relative viability", "setting": "[3]; first compound 0.6325 µM", "value": 0.773}, {"measurement": "relative viability", "setting": "[3]; first compound 2 µM", "value": 0.834}, {"measurement": "relative viability", "setting": "[3]; first compound 6.325 µM", "value": 0.588}, {"measurement": "relative viability", "setting": "[4]; first compound 0.2 µM", "value": 0.598}, {"measurement": "relative viability", "setting": "[4]; first compound 0.6325 µM", "value": 0.577}, {"measurement": "relative viability", "setting": "[4]; first compound 2 µM", "value": 0.597}, {"measurement": "relative viability", "setting": "[4]; first compound 6.325 µM", "value": 0.451}, {"measurement": "relative viability", "setting": "[5]; first compound 0.2 µM", "value": 0.361}, {"measurement": "relative viability", "setting": "[5]; first compound 0.6325 µM", "value": 0.453}, {"measurement": "relative viability", "setting": "[5]; first compound 2 µM", "value": 0.431}, {"measurement": "relative viability", "setting": "[5]; first compound 6.325 µM", "value": 0.317}]}
